Reference: patent US20170190671A1, “BIS(ARYL)CATECHOL DERIVATIVES AS HERBICIDES” (E I DU PONT DE NEMOURS AND COMPANY, priority 2014, published 2017)

Tests used:
[1] = tested on: barnyardgrass (Echinochloa crus-galli); assay: Test C postemergence; format: in vivo; conditions: Echinochloa crus-galli, post-emergence, Postemergence, scale 0 to 100, read-out: Plant response rating, Barnyardgrass
How it was run: (§1)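 Seeds in loam-sand soil were treated preemergence, and plants at the 1- to 4-leaf stage (2-18 cm) in peat-based medium were sprayed postemergence, with test chemicals in a non-phytotoxic solvent containing surfactant. After 13-15 days in a greenhouse, response was rated visually against controls from 0 (no effect) to 100 (complete control).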

[2] = tested on: soybean (Glycine max); assay: Test C postemergence; format: in vivo; conditions: Glycine max, post-emergence, Postemergence, scale 0 to 100, read-out: Plant response rating, Soybean
How it was run: as §1

[3] = tested on: corn (Zea mays); assay: Test C postemergence; format: in vivo; conditions: Zea mays, post-emergence, 336 h, Postemergence, scale 0 to 100
How it was run: as §1

[4] = tested on: wild oat (Avena fatua); assay: Test C postemergence; format: in vivo; conditions: Avena fatua, post-emergence, Postemergence, scale 0 to 100, read-out: Plant response rating, Oat, Wild
How it was run: as §1

[5] = tested on: galium (catchweed bedstraw, Galium aparine); assay: Test C postemergence; format: in vivo; conditions: Galium, post-emergence, 336 h, Postemergence, scale 0 to 100, read-out: Plant response rating, Galium
How it was run: as §1

[6] = tested on: waterhemp (common waterhemp, Amaranthus rudis); assay: Test C postemergence; format: in vivo; conditions: Amaranthus tuberculatus, post-emergence, Postemergence, scale 0 to 100, read-out: Plant response rating, Waterhemp
How it was run: as §1

[7] = tested on: pigweed (Amaranthus retroflexus); assay: Test C postemergence; format: in vivo; conditions: Amaranthus retroflexus, post-emergence, 336 h, Postemergence, scale 0 to 100, read-out: Plant response rating, Pigweed
How it was run: as §1

[8] = tested on: johnsongrass (Sorghum halepense); assay: Test C postemergence; format: in vivo; conditions: Sorghum halepense, post-emergence, 336 h, Postemergence, scale 0 to 100, read-out: Plant response rating, Johnsongrass
How it was run: as §1

[9] = tested on: oilseed rape (Brassica napus); assay: Test C postemergence; format: in vivo; conditions: Brassica napus, post-emergence, Postemergence, scale 0 to 100, read-out: Plant response rating, Oilseed Rape
How it was run: as §1

[10] = tested on: ragweed (common ragweed, Ambrosia elatior); assay: Test C postemergence; format: in vivo; conditions: Ambrosia artemisiifolia, post-emergence, 336 h, Postemergence, scale 0 to 100, read-out: Plant response rating, Ragweed
How it was run: as §1

[11] = tested on: winter wheat (Triticum aestivum); assay: Test C postemergence; format: in vivo; conditions: Triticum aestivum, post-emergence, 336 h, Postemergence, scale 0 to 100, read-out: Plant response rating, Wheat
How it was run: as §1

[12] = tested on: kochia (Kochia scoparia); assay: Test C postemergence; format: in vivo; conditions: Bassia scoparia, post-emergence, Postemergence, scale 0 to 100, read-out: Plant response rating, Kochia
How it was run: as §1

[13] = tested on: large (Lg) crabgrass (Digitaria sanguinalis); assay: Test C postemergence; format: in vivo; conditions: Digitaria sanguinalis, post-emergence, 336 h, Postemergence, scale 0 to 100, read-out: Plant response rating, Crabgrass, Large
How it was run: as §1

[14] = tested on: Italian ryegrass (Lolium multiflorum); assay: Test C postemergence; format: in vivo; conditions: Lolium multiflorum, post-emergence, 336 h, Postemergence, scale 0 to 100, read-out: Plant response rating, Ryegrass, Italian
How it was run: as §1

[15] = tested on: morningglory (Ipomoea coccinea); assay: Test C postemergence; format: in vivo; conditions: Ipomoea, post-emergence, 336 h, Postemergence, scale 0 to 100, read-out: Plant response rating, Morningglory
How it was run: as §1

Compound `Fc1cnc(Oc2c(F)ccc(F)c2Oc2ncc(F)cn2)nc1` [Compound 29, 2,2′-[(3,6-difluoro-1,2-phenylene)bis(oxy)]bis[5-fluoropyrimidine]] has a melting point of 158 to 161 °C, a pest or weed control at 16 g/ha ([1]; 16 g ai/ha) of 0% and a pest or weed control at 31 g/ha ([1]; 31 g ai/ha) of 0%. For the same compound, the pest or weed control at 62 g/ha ([1]; 62 g ai/ha) was 5%, the pest or weed control at 125 g/ha ([1]; 125 g ai/ha) was 15% and the plant injury at 31 g/ha ([2]; 31 g ai/ha) was 70%. It also gave a plant injury at 62 g/ha ([2]; 62 g ai/ha) of 75%, a plant injury at 125 g/ha ([2]; 125 g ai/ha) of 85% and a Corn plant response rating (crop injury, 0 = no effect, 100 = complete kill) at 16 g/ha ([3]; 16 g ai/ha) of 0%. For the same compound, the Corn plant response rating (crop injury, 0 = no effect, 100 = complete kill) at 31 g/ha ([3]; 31 g ai/ha) was 0%, the Corn plant response rating (crop injury, 0 = no effect, 100 = complete kill) at 62 g/ha ([3]; 62 g ai/ha) was 5% and the Corn plant response rating (crop injury, 0 = no effect, 100 = complete kill) at 125 g/ha ([3]; 125 g ai/ha) was 5%. It also gave a pest or weed control at 31 g/ha ([4]; 31 g ai/ha) of 5%, a pest or weed control at 62 g/ha ([4]; 62 g ai/ha) of 30% and a pest or weed control at 125 g/ha ([4]; 125 g ai/ha) of 35%. For the same compound, the pest or weed control at 16 g/ha ([5]; 16 g ai/ha) was 85%, the pest or weed control at 31 g/ha ([5]; 31 g ai/ha) was 85% and the pest or weed control at 62 g/ha ([5]; 62 g ai/ha) was 90%. The pest or weed control at 125 g/ha ([5]; 125 g ai/ha) was 98%, the pest or weed control at 31 g/ha ([6]; 31 g ai/ha) was 85% and the pest or weed control at 62 g/ha ([6]; 62 g ai/ha) was 90%. The pest or weed control at 125 g/ha ([6]; 125 g ai/ha) was 95%, the pest or weed control at 31 g/ha ([7]; 31 g ai/ha) was 90% and the pest or weed control at 62 g/ha ([7]; 62 g ai/ha) was 95%. For the same compound, the pest or weed control at 125 g/ha ([7]; 125 g ai/ha) was 90%, the pest or weed control at 16 g/ha ([8]; 16 g ai/ha) was 0% and the pest or weed control at 31 g/ha ([8]; 31 g ai/ha) was 0%. The pest or weed control at 62 g/ha ([8]; 62 g ai/ha) was 20%, the pest or weed control at 125 g/ha ([8]; 125 g ai/ha) was 20% and the plant injury at 31 g/ha ([9]; 31 g ai/ha) was 60%. The plant injury at 62 g/ha ([9]; 62 g ai/ha) was 70%, the plant injury at 125 g/ha ([9]; 125 g ai/ha) was 90% and the pest or weed control at 31 g/ha ([10]; 31 g ai/ha) was 70%. It also gave a pest or weed control at 62 g/ha ([10]; 62 g ai/ha) of 75%, a pest or weed control at 125 g/ha ([10]; 125 g ai/ha) of 80% and a plant injury at 31 g/ha ([11]; 31 g ai/ha) of 0%. The plant injury at 62 g/ha ([11]; 62 g ai/ha) was 0%, the plant injury at 125 g/ha ([11]; 125 g ai/ha) was 0% and the pest or weed control at 16 g/ha ([12]; 16 g ai/ha) was 80%. The pest or weed control at 31 g/ha ([12]; 31 g ai/ha) was 90%, the pest or weed control at 62 g/ha ([12]; 62 g ai/ha) was 90% and the pest or weed control at 125 g/ha ([12]; 125 g ai/ha) was 95%. It also gave a pest or weed control at 16 g/ha ([13]; 16 g ai/ha) of 0%, a pest or weed control at 31 g/ha ([13]; 31 g ai/ha) of 0% and a pest or weed control at 62 g/ha ([13]; 62 g ai/ha) of 5%. It also gave a pest or weed control at 125 g/ha ([13]; 125 g ai/ha) of 10%, a pest or weed control at 31 g/ha ([14]; 31 g ai/ha) of 0% and a pest or weed control at 62 g/ha ([14]; 62 g ai/ha) of 35%. The pest or weed control at 125 g/ha ([14]; 125 g ai/ha) was 20%, the pest or weed control at 31 g/ha ([15]; 31 g ai/ha) was 75% and the pest or weed control at 62 g/ha ([15]; 62 g ai/ha) was 90%. For the same compound, the pest or weed control at 125 g/ha ([15]; 125 g ai/ha) was 95%.
